Assay results reported in PubChem BioAssay (NCI).
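In this assay, cells in 96-well plates receive the compound at five concentrations for 48 hours. Endpoints are linearly interpolated between the surrounding concentrations. Here, GI50 denotes the concentration required for 50% inhibition of growth. Definition used: TGI = concentration required for complete inhibition of growth.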

Assays:
Assay in all cases: NCI-60 cell line screen, 48 h
U251 CNS = test system: U251 CNS
HOP-62 NSCLC = test system: HOP-62 NSCLC
HL-60(TB) leukemia = test system: HL-60(TB) leukemia
A549 NSCLC = test system: A549 NSCLC
MDA-MB-231 breast = test system: MDA-MB-231 breast
SK-OV-3 ovarian = test system: SK-OV-3 ovarian
MDA-MB-435 = test system: MDA-MB-435
TK-10 renal = test system: TK-10 renal
PC-3 prostate = test system: PC-3 prostate
NCI-H226 lung = test system: NCI-H226 lung
M14 melanoma = test system: M14 melanoma
SK-MEL-5 melanoma = test system: SK-MEL-5 melanoma
UACC-62 melanoma = test system: UACC-62 melanoma
T-47D breast = test system: T-47D breast
MALME-3M melanoma = test system: MALME-3M melanoma
NCI-H522 lung = test system: NCI-H522 lung
SK-MEL-2 melanoma = test system: SK-MEL-2 melanoma
HCC-2998 colon = test system: HCC-2998 colon
NCI-H460 lung = test system: NCI-H460 lung
OVCAR-3 ovarian = test system: OVCAR-3 ovarian
ACHN renal = test system: ACHN renal
HS 578T breast = test system: HS 578T breast
CAKI-1 renal = test system: CAKI-1 renal
SW-620 colon = test system: SW-620 colon
OVCAR-4 ovarian = test system: OVCAR-4 ovarian
SN12C renal = test system: SN12C renal
KM12 colon = test system: KM12 colon
MOLT-4 leukemia = test system: MOLT-4 leukemia
EKVX NSCLC = test system: EKVX NSCLC
SR leukemia = test system: SR leukemia
HOP-92 NSCLC = test system: HOP-92 NSCLC
SNB-75 CNS = test system: SNB-75 CNS
NCI/ADR-RES ovarian = test system: NCI/ADR-RES ovarian
BT-549 breast = test system: BT-549 breast
IGROV1 ovarian = test system: IGROV1 ovarian
MCF7 breast = test system: MCF7 breast
SK-MEL-28 melanoma = test system: SK-MEL-28 melanoma
SF-295 CNS = test system: SF-295 CNS
786-0 renal = test system: 786-0 renal
COLO 205 colon = test system: COLO 205 colon
SNB-19 CNS = test system: SNB-19 CNS
K-562 leukemia = test system: K-562 leukemia
DU-145 prostate = test system: DU-145 prostate
HCT-116 colon = test system: HCT-116 colon
RXF 393 renal = test system: RXF 393 renal
HT29 colon = test system: HT29 colon
RPMI-8226 leukemia = test system: RPMI-8226 leukemia
A498 renal = test system: A498 renal
SF-268 CNS = test system: SF-268 CNS
CCRF-CEM leukemia = test system: CCRF-CEM leukemia
HCT-15 colon = test system: HCT-15 colon
OVCAR-8 ovarian = test system: OVCAR-8 ovarian
LOX IMVI melanoma = test system: LOX IMVI melanoma
OVCAR-5 ovarian = test system: OVCAR-5 ovarian
NCI-H23 lung = test system: NCI-H23 lung
SF-539 CNS = test system: SF-539 CNS
UACC-257 melanoma = test system: UACC-257 melanoma
UO-31 renal = test system: UO-31 renal

In the case of `O=C(CCl)Nc1ccc2c(Nc3cc(O)ccc3Cl)ncnc2c1`, the GI50 (U251 CNS) is reported as 0.828 µM, the TGI (U251 CNS) is reported as 2.97 µM and the GI50 (HOP-62 NSCLC) is reported as 3.27 µM. It also gave a TGI (HOP-62 NSCLC) of 7.17 µM, a GI50 (HL-60(TB) leukemia) of 1.15 µM and a TGI (HL-60(TB) leukemia) of 4.88 µM. For the same molecule, the GI50 (A549 NSCLC) was 4.08 µM, the TGI (A549 NSCLC) was 8.26 µM and the GI50 (MDA-MB-231 breast) was 2.75 µM. For the same molecule, the TGI (MDA-MB-231 breast) was 6.25 µM, the GI50 (SK-OV-3 ovarian) was 4.24 µM and the TGI (SK-OV-3 ovarian) was 7.94 µM. It also gave a GI50 (MDA-MB-435) of 2.21 µM, a TGI (MDA-MB-435) of 5.75 µM and a GI50 (TK-10 renal) of 3.87 µM. For the same molecule, the TGI (TK-10 renal) was 8.23 µM, the GI50 (PC-3 prostate) was 3.02 µM and the TGI (PC-3 prostate) was 6.79 µM. It also gave a GI50 (NCI-H226 lung) of 5.86 µM, a TGI (NCI-H226 lung) of 12.3 µM and a GI50 (M14 melanoma) of 3.3 µM. It also gave a TGI (M14 melanoma) of 7.26 µM, a GI50 (SK-MEL-5 melanoma) of 3.22 µM and a TGI (SK-MEL-5 melanoma) of 6.76 µM. The GI50 (UACC-62 melanoma) was 2.38 µM, the TGI (UACC-62 melanoma) was 5.98 µM and the GI50 (T-47D breast) was 3.51 µM. The TGI (T-47D breast) was 7.72 µM, the GI50 (MALME-3M melanoma) was 3.9 µM and the TGI (MALME-3M melanoma) was 8.1 µM. The GI50 (NCI-H522 lung) was 0.664 µM, the TGI (NCI-H522 lung) was 2.12 µM and the GI50 (SK-MEL-2 melanoma) was 3.65 µM. The TGI (SK-MEL-2 melanoma) was 8.19 µM, the GI50 (HCC-2998 colon) was 4.9 µM and the TGI (HCC-2998 colon) was 9.81 µM. The GI50 (NCI-H460 lung) was 2.33 µM, the TGI (NCI-H460 lung) was 6.4 µM and the GI50 (OVCAR-3 ovarian) was 1.71 µM. It also gave a TGI (OVCAR-3 ovarian) of 5.2 µM, a GI50 (ACHN renal) of 2.87 µM and a TGI (ACHN renal) of 6.52 µM. The GI50 (HS 578T breast) was 3.27 µM, the TGI (HS 578T breast) was 15.2 µM and the GI50 (CAKI-1 renal) was 3.36 µM. For the same molecule, the TGI (CAKI-1 renal) was 7.45 µM, the GI50 (SW-620 colon) was 1.14 µM and the TGI (SW-620 colon) was 3.79 µM. It also gave a GI50 (OVCAR-4 ovarian) of 3.09 µM, a TGI (OVCAR-4 ovarian) of 7.44 µM and a GI50 (SN12C renal) of 1.21 µM. The TGI (SN12C renal) was 4.06 µM, the GI50 (KM12 colon) was 3.23 µM and the TGI (KM12 colon) was 7.11 µM. The GI50 (MOLT-4 leukemia) was 0.846 µM, the TGI (MOLT-4 leukemia) was 4.03 µM and the GI50 (EKVX NSCLC) was 3.03 µM. It also gave a TGI (EKVX NSCLC) of 6.87 µM, a GI50 (SR leukemia) of 0.758 µM and a TGI (SR leukemia) of 3.72 µM. It also gave a GI50 (HOP-92 NSCLC) of 4.86 µM, a TGI (HOP-92 NSCLC) of 9.38 µM and a GI50 (SNB-75 CNS) of 3.28 µM. It also gave a TGI (SNB-75 CNS) of 6.56 µM, a GI50 (NCI/ADR-RES ovarian) of 3.55 µM and a TGI (NCI/ADR-RES ovarian) of 9.31 µM. The GI50 (BT-549 breast) was 2.02 µM, the TGI (BT-549 breast) was 5.81 µM and the GI50 (IGROV1 ovarian) was 2.12 µM. For the same molecule, the TGI (IGROV1 ovarian) was 6.32 µM, the GI50 (MCF7 breast) was 1.07 µM and the TGI (MCF7 breast) was 5 µM. It also gave a GI50 (SK-MEL-28 melanoma) of 3.66 µM, a TGI (SK-MEL-28 melanoma) of 7.97 µM and a GI50 (SF-295 CNS) of 2.58 µM. The TGI (SF-295 CNS) was 5.96 µM, the GI50 (786-0 renal) was 1.24 µM and the TGI (786-0 renal) was 4.56 µM. It also gave a GI50 (COLO 205 colon) of 4.03 µM, a TGI (COLO 205 colon) of 8.06 µM and a GI50 (SNB-19 CNS) of 2.14 µM. It also gave a TGI (SNB-19 CNS) of 5.22 µM, a GI50 (K-562 leukemia) of 0.929 µM and a TGI (K-562 leukemia) of 7.23 µM. The GI50 (DU-145 prostate) was 2.39 µM, the TGI (DU-145 prostate) was 5.36 µM and the GI50 (HCT-116 colon) was 0.93 µM. For the same molecule, the TGI (HCT-116 colon) was 3.99 µM, the GI50 (RXF 393 renal) was 3.37 µM and the TGI (RXF 393 renal) was 7.13 µM. For the same molecule, the GI50 (HT29 colon) was 1.93 µM, the TGI (HT29 colon) was 5.78 µM and the GI50 (RPMI-8226 leukemia) was 2.94 µM. The TGI (RPMI-8226 leukemia) was 7.66 µM, the GI50 (A498 renal) was 5.51 µM and the TGI (A498 renal) was 11.1 µM. The GI50 (SF-268 CNS) was 2.65 µM, the TGI (SF-268 CNS) was 6.63 µM and the GI50 (CCRF-CEM leukemia) was 0.892 µM. It also gave a TGI (CCRF-CEM leukemia) of 3.02 µM, a GI50 (HCT-15 colon) of 0.773 µM and a TGI (HCT-15 colon) of 3.32 µM. For the same molecule, the GI50 (OVCAR-8 ovarian) was 3.71 µM, the TGI (OVCAR-8 ovarian) was 10.1 µM and the GI50 (LOX IMVI melanoma) was 0.818 µM. For the same molecule, the TGI (LOX IMVI melanoma) was 3.64 µM, the GI50 (OVCAR-5 ovarian) was 3.4 µM and the TGI (OVCAR-5 ovarian) was 7.03 µM. It also gave a GI50 (NCI-H23 lung) of 2.73 µM, a TGI (NCI-H23 lung) of 7.1 µM and a GI50 (SF-539 CNS) of 3.38 µM. The TGI (SF-539 CNS) was 6.84 µM, the GI50 (UACC-257 melanoma) was 4.02 µM and the TGI (UACC-257 melanoma) was 8.44 µM. It also gave a GI50 (UO-31 renal) of 2.69 µM and a TGI (UO-31 renal) of 6 µM.
